{"source": "ChEMBL document CHEMBL5543164", "about": "(J Med Chem, 2024)", "key": {"[1]": {"biological_target": "T1, Phosphatidylinositol 4,5-bisphosphate 3-kinase catalytic subunit delta isoform (Homo sapiens, UniProt O00329)", "T1 sequence (O00329 whole entry)": "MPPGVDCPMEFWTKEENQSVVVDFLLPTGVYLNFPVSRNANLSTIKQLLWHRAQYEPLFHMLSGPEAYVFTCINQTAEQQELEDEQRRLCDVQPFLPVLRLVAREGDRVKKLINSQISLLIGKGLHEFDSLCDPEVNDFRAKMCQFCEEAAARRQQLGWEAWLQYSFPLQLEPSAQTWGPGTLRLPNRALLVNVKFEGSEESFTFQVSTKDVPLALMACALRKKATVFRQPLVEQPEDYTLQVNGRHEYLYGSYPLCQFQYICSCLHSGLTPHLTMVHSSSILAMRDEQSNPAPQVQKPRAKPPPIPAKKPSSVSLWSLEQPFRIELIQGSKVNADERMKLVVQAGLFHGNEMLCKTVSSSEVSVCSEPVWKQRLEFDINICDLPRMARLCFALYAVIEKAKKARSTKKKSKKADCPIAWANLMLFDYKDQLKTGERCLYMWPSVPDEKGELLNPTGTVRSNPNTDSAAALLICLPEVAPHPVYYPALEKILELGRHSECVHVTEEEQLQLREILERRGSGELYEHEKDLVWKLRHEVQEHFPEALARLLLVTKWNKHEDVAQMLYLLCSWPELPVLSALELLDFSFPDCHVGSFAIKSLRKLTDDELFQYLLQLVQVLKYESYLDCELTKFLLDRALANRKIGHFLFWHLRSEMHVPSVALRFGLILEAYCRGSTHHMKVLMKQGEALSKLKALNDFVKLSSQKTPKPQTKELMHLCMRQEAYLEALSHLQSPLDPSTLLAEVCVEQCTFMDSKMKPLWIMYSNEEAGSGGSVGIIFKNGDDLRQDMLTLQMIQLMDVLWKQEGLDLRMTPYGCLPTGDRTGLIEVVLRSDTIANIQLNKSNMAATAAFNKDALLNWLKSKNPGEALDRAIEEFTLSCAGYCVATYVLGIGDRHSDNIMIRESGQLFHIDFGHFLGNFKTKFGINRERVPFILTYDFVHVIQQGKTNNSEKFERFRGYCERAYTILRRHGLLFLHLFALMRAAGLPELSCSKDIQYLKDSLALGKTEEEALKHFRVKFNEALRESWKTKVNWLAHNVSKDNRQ"}, "MCF7": {"tested_on": "MCF7", "assay": "Antiproliferative activity against human MCF7 cells assessed as inhibition of cell growth incubated for 48 hrs by CCK-8 assay", "type": "functional, cell-based", "settings": "MCF7, 48 h"}, "[2]": {"assay": "Selectivity index, ratio of IC50 for antiproliferative activity against human L02 cells assessed as inhibition of cell growth to IC50 for antiproliferative activity against human HepG2 cells assessed as inhibition of cell growth", "type": "toxicity, cell-based", "settings": "L02 cells versus HepG2 cells, read-out: Ratio IC50"}, "[3]": {"biological_target": "Serine/threonine-protein kinase mTOR (Homo sapiens, UniProt P42345)"}, "HepG2": {"tested_on": "HepG2", "assay": "Antiproliferative activity against human HepG2 cells assessed as inhibition of cell growth incubated for 48 hrs by CCK-8 assay", "type": "functional, cell-based", "settings": "HepG2, 48 h"}, "[4]": {"biological_target": "Phosphatidylinositol 4,5-bisphosphate 3-kinase catalytic subunit beta isoform (Homo sapiens, UniProt P42338)", "sequence (P42338 whole entry, canonical isoform)": "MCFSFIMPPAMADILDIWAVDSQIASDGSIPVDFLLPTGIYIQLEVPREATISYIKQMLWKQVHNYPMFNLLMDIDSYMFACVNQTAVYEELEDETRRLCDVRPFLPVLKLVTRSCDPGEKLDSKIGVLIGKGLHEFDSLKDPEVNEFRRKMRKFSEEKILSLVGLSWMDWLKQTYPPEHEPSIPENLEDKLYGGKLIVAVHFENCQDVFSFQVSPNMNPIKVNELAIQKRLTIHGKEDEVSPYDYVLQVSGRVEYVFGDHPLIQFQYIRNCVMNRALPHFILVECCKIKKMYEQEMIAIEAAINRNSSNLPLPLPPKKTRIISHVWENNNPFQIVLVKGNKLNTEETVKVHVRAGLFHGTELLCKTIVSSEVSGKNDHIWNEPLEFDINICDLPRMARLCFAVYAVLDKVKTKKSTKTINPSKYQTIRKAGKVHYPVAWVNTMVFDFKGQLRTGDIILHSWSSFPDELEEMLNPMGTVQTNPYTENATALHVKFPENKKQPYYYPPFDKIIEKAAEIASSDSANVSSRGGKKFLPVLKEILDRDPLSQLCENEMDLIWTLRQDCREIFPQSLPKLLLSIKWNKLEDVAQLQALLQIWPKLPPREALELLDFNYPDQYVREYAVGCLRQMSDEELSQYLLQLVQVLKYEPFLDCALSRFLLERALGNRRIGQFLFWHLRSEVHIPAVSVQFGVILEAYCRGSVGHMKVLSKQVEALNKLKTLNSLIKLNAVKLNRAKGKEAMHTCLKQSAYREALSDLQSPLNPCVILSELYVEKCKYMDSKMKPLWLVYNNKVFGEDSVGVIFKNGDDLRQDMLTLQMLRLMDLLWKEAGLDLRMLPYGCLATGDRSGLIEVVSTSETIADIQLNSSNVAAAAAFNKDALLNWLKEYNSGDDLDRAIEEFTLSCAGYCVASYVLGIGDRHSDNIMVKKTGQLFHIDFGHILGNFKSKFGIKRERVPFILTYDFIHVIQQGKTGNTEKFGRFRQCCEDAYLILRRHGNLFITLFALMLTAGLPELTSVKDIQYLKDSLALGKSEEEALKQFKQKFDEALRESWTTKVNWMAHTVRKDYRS"}, "MDA-MB-231": {"tested_on": "MDA-MB-231", "assay": "Antiproliferative activity against human MDA-MB-231 cells assessed as inhibition of cell growth incubated for 48 hrs by CCK-8 assay", "type": "functional, cell-based", "settings": "MDA-MB-231, 48 h"}, "HeLa": {"tested_on": "HeLa", "assay": "Antiproliferative activity against human HeLa cells assessed as inhibition of cell growth incubated for 48 hrs by CCK-8 assay", "type": "functional, cell-based"}, "CNE-2": {"tested_on": "CNE-2", "assay": "Antiproliferative activity against human CNE-2 cells assessed as inhibition of cell growth incubated for 48 hrs by CCK-8 assay", "type": "functional, cell-based", "settings": "CNE-2, 48 h"}, "HCT-116": {"tested_on": "HCT-116", "assay": "Antiproliferative activity against human HCT-116 cells assessed as inhibition of cell growth incubated for 48 hrs by CCK-8 assay", "type": "functional, cell-based", "settings": "HCT-116, 48 h"}, "[5]": {"biological_target": "Phosphatidylinositol 4,5-bisphosphate 3-kinase catalytic subunit alpha isoform (Homo sapiens, UniProt P42336)", "sequence (P42336 whole entry, canonical isoform)": "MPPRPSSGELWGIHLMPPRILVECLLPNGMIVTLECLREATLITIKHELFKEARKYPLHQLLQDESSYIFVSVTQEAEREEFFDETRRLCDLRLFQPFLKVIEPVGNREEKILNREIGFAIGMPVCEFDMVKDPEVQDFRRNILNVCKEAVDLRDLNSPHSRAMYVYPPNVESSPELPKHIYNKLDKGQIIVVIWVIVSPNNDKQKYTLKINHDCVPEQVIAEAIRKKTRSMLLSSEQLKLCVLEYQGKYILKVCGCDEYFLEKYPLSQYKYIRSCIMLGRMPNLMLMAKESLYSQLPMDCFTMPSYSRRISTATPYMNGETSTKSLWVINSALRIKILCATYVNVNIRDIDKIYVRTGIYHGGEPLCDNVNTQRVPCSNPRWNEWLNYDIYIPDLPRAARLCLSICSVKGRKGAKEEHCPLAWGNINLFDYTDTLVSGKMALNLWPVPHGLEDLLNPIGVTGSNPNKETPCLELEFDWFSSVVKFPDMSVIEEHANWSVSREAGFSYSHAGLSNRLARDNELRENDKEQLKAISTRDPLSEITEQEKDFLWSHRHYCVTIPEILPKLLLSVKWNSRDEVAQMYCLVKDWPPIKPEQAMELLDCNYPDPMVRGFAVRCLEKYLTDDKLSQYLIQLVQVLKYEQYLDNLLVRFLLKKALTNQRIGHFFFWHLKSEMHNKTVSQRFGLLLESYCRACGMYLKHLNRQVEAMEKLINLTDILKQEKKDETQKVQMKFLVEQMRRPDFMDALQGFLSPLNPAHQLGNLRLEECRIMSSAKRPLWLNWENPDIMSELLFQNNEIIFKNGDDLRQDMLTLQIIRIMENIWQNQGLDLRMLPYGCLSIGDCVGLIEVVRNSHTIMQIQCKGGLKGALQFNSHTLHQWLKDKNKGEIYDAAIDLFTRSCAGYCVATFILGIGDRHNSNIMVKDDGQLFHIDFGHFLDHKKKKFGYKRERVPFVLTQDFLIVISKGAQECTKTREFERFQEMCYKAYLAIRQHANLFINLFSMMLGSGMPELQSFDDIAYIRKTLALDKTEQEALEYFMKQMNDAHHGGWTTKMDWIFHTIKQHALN", "assay": "Inhibition of PI3Kalpha (unknown origin) by ADP-glo plus luminescence assay"}, "[6]": {"biological_target": "Phosphatidylinositol 4,5-bisphosphate 3-kinase catalytic subunit gamma isoform (Homo sapiens, UniProt P48736)", "sequence (P48736 whole entry, canonical isoform)": "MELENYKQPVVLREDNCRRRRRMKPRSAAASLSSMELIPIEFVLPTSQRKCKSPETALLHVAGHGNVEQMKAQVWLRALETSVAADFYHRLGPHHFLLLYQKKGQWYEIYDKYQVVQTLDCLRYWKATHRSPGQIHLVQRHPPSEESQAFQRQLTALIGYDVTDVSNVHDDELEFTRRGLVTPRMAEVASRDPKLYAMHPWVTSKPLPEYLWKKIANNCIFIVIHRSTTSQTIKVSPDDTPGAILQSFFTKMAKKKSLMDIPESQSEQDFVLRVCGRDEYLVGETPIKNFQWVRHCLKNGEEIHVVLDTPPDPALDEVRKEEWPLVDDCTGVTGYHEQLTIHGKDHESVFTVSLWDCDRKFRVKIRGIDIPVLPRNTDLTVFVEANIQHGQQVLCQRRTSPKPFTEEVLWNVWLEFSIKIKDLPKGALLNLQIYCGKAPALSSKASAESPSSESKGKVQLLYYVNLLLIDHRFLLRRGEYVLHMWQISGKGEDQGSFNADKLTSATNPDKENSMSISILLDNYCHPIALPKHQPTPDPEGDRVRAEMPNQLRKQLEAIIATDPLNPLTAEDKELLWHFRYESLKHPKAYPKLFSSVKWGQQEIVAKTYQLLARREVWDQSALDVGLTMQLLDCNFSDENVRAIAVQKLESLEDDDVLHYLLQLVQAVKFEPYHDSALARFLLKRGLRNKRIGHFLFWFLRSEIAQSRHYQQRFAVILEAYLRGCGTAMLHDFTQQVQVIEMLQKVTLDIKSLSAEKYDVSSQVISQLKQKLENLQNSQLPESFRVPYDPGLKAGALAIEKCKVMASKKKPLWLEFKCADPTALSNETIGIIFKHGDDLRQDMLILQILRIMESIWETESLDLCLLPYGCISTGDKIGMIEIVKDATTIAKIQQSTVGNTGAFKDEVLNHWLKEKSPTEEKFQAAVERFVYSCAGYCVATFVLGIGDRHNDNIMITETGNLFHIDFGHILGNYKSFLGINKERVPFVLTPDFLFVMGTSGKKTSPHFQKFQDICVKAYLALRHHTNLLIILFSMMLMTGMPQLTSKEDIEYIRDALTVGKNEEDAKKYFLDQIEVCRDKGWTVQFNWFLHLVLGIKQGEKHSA", "assay": "Inhibition of PI3Kgamma (unknown origin) by ADP-glo plus luminescence assay"}, "[7]": {"assay": "Antiproliferative activity against human L02 cells assessed as inhibition of cell growth incubated for 48 hrs by CCK-8 assay", "type": "toxicity, cell-based"}}}
{"smiles": "O=C(Nc1ccc(-c2nc(N3CCOCC3)nc(N3C4CCC3COC4)n2)cc1)Nc1ccc2c(c1)COC2=O", "values": [{"measurement": "IC50", "setting": "[1]", "result": 1830, "unit": "nM"}, {"measurement": "IC50", "setting": "MCF7", "result": 890, "unit": "nM"}, {"measurement": "selectivity ratio", "setting": "[2]", "result": 35.3}, {"measurement": "IC50", "setting": "[3]", "result": 1.7, "unit": "nM"}, {"measurement": "IC50", "setting": "HepG2", "result": 130, "unit": "nM"}, {"measurement": "IC50", "setting": "[4]", "result": 782, "unit": "nM"}, {"measurement": "IC50", "setting": "MDA-MB-231", "result": 4430, "unit": "nM"}, {"measurement": "IC50", "setting": "HeLa", "result": 2150, "unit": "nM"}, {"measurement": "IC50", "setting": "CNE-2", "result": 230, "unit": "nM"}, {"measurement": "IC50", "setting": "HCT-116", "result": 732, "unit": "nM"}, {"measurement": "IC50", "setting": "[5]", "result": 354, "unit": "nM"}, {"measurement": "IC50", "setting": "[6]", "result": 1940, "unit": "nM"}, {"measurement": "IC50 at 48 h", "setting": "[7]", "result": 4590, "unit": "nM"}]}
{"smiles": "C[C@H]1COCCN1c1nc(-c2ccc(NC(=O)Nc3ccc4c(c3)COC4=O)cc2)nc(N2C3CCC2COC3)n1", "values": [{"measurement": "IC50", "setting": "MCF7", "result": 1740, "unit": "nM"}, {"measurement": "IC50", "setting": "[3]", "result": 4, "unit": "nM"}, {"measurement": "IC50", "setting": "HepG2", "result": 5670, "unit": "nM"}, {"measurement": "IC50", "setting": "MDA-MB-231", "result": 3440, "unit": "nM"}, {"measurement": "IC50", "setting": "HeLa", "result": 6030, "unit": "nM"}, {"measurement": "IC50", "setting": "CNE-2", "result": 1080, "unit": "nM"}, {"measurement": "IC50", "setting": "HCT-116", "result": 5050, "unit": "nM"}]}
{"smiles": "O=C(Nc1ccc(-c2nc(N3CCOCC3)nc(N3CCO[C@@H](CO)C3)n2)cc1)Nc1ccc2c(c1)COC2=O", "values": [{"measurement": "IC50", "setting": "[1]", "result": 234, "unit": "nM"}, {"measurement": "IC50", "setting": "[4]", "result": 157, "unit": "nM"}, {"measurement": "IC50", "setting": "[6]", "result": 228, "unit": "nM"}]}
{"smiles": "O=C(Nc1ccc(-c2nc(N3CCOCC3)nc(N3CC4CCC(C3)O4)n2)cc1)Nc1ccc2c(c1)COC2=O", "values": [{"measurement": "IC50", "setting": "[3]", "result": 4.6, "unit": "nM"}]}
{"smiles": "O=C(Nc1ccc(-c2nc(N3CCOCC3)nc(N3CCO[C@H](CO)C3)n2)cc1)Nc1ccc2c(c1)COC2=O", "values": [{"measurement": "IC50", "setting": "[1]", "result": 161, "unit": "nM"}, {"measurement": "IC50", "setting": "[4]", "result": 93, "unit": "nM"}, {"measurement": "IC50", "setting": "[6]", "result": 228, "unit": "nM"}]}
{"smiles": "O=C(Nc1ccc(-c2nc(N3CCOCC3)nc(N3CCOCC3)n2)cc1)Nc1ccc2c(c1)COC2=O", "values": [{"measurement": "IC50", "setting": "[1]", "result": 248, "unit": "nM"}, {"measurement": "IC50", "setting": "[4]", "result": 129, "unit": "nM"}, {"measurement": "IC50", "setting": "[6]", "result": 162, "unit": "nM"}]}
{"smiles": "O=C(Nc1ccc(-c2nc(N3CCOCC3)nc(N3C4CCC3CNC4)n2)cc1)Nc1ccc2c(c1)COC2=O", "values": [{"measurement": "IC50", "setting": "MCF7", "result": 1130, "unit": "nM"}, {"measurement": "IC50", "setting": "[3]", "result": 20, "unit": "nM"}, {"measurement": "IC50", "setting": "HepG2", "result": "> 100000", "unit": "nM"}, {"measurement": "IC50", "setting": "MDA-MB-231", "result": 11900, "unit": "nM"}, {"measurement": "IC50", "setting": "HeLa", "result": 12600, "unit": "nM"}, {"measurement": "IC50", "setting": "CNE-2", "result": 2270, "unit": "nM"}, {"measurement": "IC50", "setting": "HCT-116", "result": 770, "unit": "nM"}]}
